Measured values as given in patent US20250127753A1, “PHARMACEUTICAL APPLICATION OF DIMYRICETIN-YL-DISELENIDE IN TUMORS” (Shanghai Spark Pharmaceutical Co., Ltd., priority 2023, published 2025).

What was measured:
PANC-1 = assay: In vitro cell viability (CTG), PANC-1; format: cell-based, Human; settings: PANC-1 cells, 72 hours, CTG assay
Description: (§1) Collect cells in the exponential growth phase and count viable cells separately using a cell counter. Adjust the cell suspension to an appropriate concentration with the corresponding culture medium. Add 90 μL of the cell suspension to each well of a 96-well cell culture plate, with 3 replicate wells containing 5000 cells/well. Place the plate in an incubator at 37° C. with 5% CO2 overnight.
(§2) On the second day, add 10 μL of dimyricetin diselenide and cisplatin to the corresponding wells. The highest final concentration of dimyricetin diselenide is 300 μg/ml (i.e., 379 μM), and the highest final concentration of cisplatin is 300 μM. A total of 9 concentrations are prepared with a 3-fold dilution.
(§3) After 72 hours, detect cell viability using the CTG assay.
(§4) Using GraphPad Prism 8.0 software, an S-shaped dose-survival curve was plotted with log (inhibitor) as the x-axis and response as the y-axis, adopting the Variable slope (four parameters) model to calculate the IC50 value.

HCC827 = assay: In vitro cell viability (CTG), HCC827; format: cell-based, Human; settings: HCC827 cells, 72 hours, CTG assay
Description: as §1, §2, §3, §4

B16-F10 = assay: In vitro cell viability (CTG), B16-F10; format: cell-based, Mouse; settings: B16-F10 cells, 72 hours, CTG assay
Description: as §1, §2, §3, §4

A375 = assay: In vitro cell viability (CTG), A375; format: cell-based, Human; settings: A375 cells, 72 hours, CTG assay
Description: as §1, §2, §3, §4

MKN45 = assay: In vitro cell viability (CTG), MKN45; format: cell-based, Human; settings: MKN45 cells, 72 hours, CTG assay
Description: as §1, §2, §3, §4

RM-1 = assay: In vitro cell viability (CTG), RM-1; format: cell-based, Mouse; settings: RM-1 cells, 72 hours, CTG assay
Description: as §1, §2, §3, §4

EMT-6 = assay: In vitro cell viability (CTG), EMT-6; format: cell-based, Mouse; settings: EMT-6 cells, 72 hours, CTG assay
Description: as §1, §2, §3, §4

Panc 02 = assay: In vitro cell viability (CTG), Panc 02; format: cell-based, Mouse; settings: Pance 02 cells, 72 hours, CTG assay
Description: as §1, §2, §3, §4

Renca = assay: In vitro cell viability (CTG), Renca; format: cell-based, Mouse; settings: Renca cells, 72 hours, CTG assay
Description: as §1, §2, §3, §4

CT-26.WT = assay: In vitro cell viability (CTG), CT-26.WT; format: cell-based, Mouse; settings: CT-26.WT cells, 72 hours, CTG assay
Description: as §1, §2, §3, §4

H22 = assay: In vitro cell viability (CTG), H22; format: cell-based, Mouse; settings: H22 cells, 72 hours, CTG assay
Description: as §1, §2, §3, §4

DU145 = assay: In vitro cell viability (CTG), DU145; format: cell-based, Human; settings: DU145 cells, 72 hours, CTG assay
Description: as §1, §2, §3, §4

HCT116 = assay: In vitro cell viability (CTG), HCT116; format: cell-based, Human; settings: HCT116 cells, 72 hours, CTG assay
Description: as §1, §2, §3, §4

[1] = system: H22 subcutaneous transplanted tumor; assay: Pharmacodynamics of subcutaneous transplanted tumor in vivo (H22); set-up: species or system BALB/c mice
Description: • Animal species and strain: BALB/c mice • Drug administration history: None • Gender and age: Female, 6-7 weeks old • Breeder/supplier: Shanghai Jihui Laboratory Animal Breeding Co., Ltd. or other qualified suppliers • Experimental facility: Pengli Biology Animal Facility • Acclimation period: 3-7 days • Number of animals: 42 • Housing: SPF (Specific Pathogen Free) area • Indoor temperature: 20-26° C. • Indoor relative humidity: 40-70% • Lighting: Fluorescent lighting, 12 hours on (08:00-20:00) and 12 hours off • Animal housing: 2-6 mice per cage (same treatment group) • Food: Ad libitum access to irradiated feed (supplied by Jiangsu Xie Tong Pharmaceutical Bioengineering Co., Ltd., China) • Water: Ad libitum access to drinking water (tap water treated by reverse osmosis or autoclaving and acidified)
BALB/c mice were purchased from Shanghai Jihui Laboratory Animal Breeding Co., Ltd. for the H22 efficacy experiment. The animals were free of specific pathogens and arrived at Pengli Biology Animal Facility at approximately 5-6 weeks of age. The proposed animal handling procedures for the experimental protocol will be reviewed and approved by the IACUC (Institutional Animal Care and Use Committee) of Pengli Biology before the start of the experiment.
The H22 cell line used in this experiment was cultured in RPMI-1640 medium supplemented with 10% FBS in a CO2 incubator at 37° C. Prior to continuous culturing for ten passages, approximately 3×10^6 H22 cells were suspended in PBS and subcutaneously inoculated into each mouse at a volume of 100 μL. Mice were anesthetized with 3-4% isoflurane before inoculation.
When tumors grew to an average size of approximately 50-80 mm3, tumor-bearing mice were randomly divided into 4 groups of 8 mice each based on body weight and tumor size. The day of group assignment and drug administration was defined as Day 0. The grouping and dosing regimen are outlined in the table below.
Tumor Volume: Measure the tumor volume twice weekly after grouping for a consecutive 4 weeks. The calculation method for tumor volume (V) is as follows: V=(Length×Width^2)/2. The relative tumor volume (RTV) for each nude mouse is calculated as: RTV=Vt/V0, where Vt is the measured volume for each day and V0 is the volume at the start of treatment.
Relative Tumor Proliferation Rate (T/C %): Used to evaluate the antitumor activity of the drug. The relative tumor proliferation rate T/C (%) is calculated as the mean RTV of the treatment group (T) divided by the mean RTV of the negative control group (C), multiplied by 100%.
Tumor Growth Inhibition (TG1%): TG1%=(1−T/C)×100%, where T is the mean RTV of the treatment group and C is the mean RTV of the negative control group.

786-O = assay: In vitro cell viability (CTG), 786-O; format: cell-based, Human; settings: 786-O cells, 72 hours, CTG assay
Description: as §1, §2, §3, §4

Hep G2 = assay: In vitro cell viability (CTG), Hep G2; format: cell-based, Human; settings: Hep G2 cells, 72 hours, CTG assay
Description: as §1, §2, §3, §4

MBT-2 = assay: In vitro cell viability (CTG), MBT-2; format: cell-based, Mouse; settings: MBT-2 cells, 72 hours, CTG assay
Description: as §1, §2, §3, §4

HCC1954 = assay: In vitro cell viability (CTG), HCC1954; format: cell-based, Human; settings: HCC1954 cells, 72 hours, CTG assay
Description: as §1, §2, §3, §4

LL/2(LLC1) = assay: In vitro cell viability (CTG), LL/2(LLC1); format: cell-based, Mouse; settings: LL/2(LLC1) cells, 72 hours, CTG assay
Description: as §1, §2, §3, §4

MFC = assay: In vitro cell viability (CTG), MFC; format: cell-based, Mouse; settings: MFC cells, 72 hours, CTG assay
Description: as §1, §2, §3, §4

T24 = assay: In vitro cell viability (CTG), T24; format: cell-based, Human; settings: T24 cells, 72 hours, CTG assay
Description: as §1, §2, §3, §4

SK-OV-3 = assay: In vitro cell viability (CTG), SK-OV-3; format: cell-based, Human; settings: SK-OV-3 cells, 72 hours, CTG assay
Description: as §1, §2, §3, §4

tumor cells = assay: In vitro cell experiment, overall statement on the tumor cell panel; format: cell-based; settings: 21 tumor cell lines, 72 hours, CTG assay
Description: as §1, §2, §3, §4

N.N.[Cl][Pt][Cl] [Cisplatin, reference compound]
IC50 (PANC-1): 13.8 µM | IC50 (HCC827): 15.1 µM | IC50 (B16-F10): 16.9 µM | IC50 (A375): 5.36 µM | IC50 (MKN45): 6.7 µM | IC50 (RM-1): 3.83 µM | IC50 (EMT-6): 6.58 µM | IC50 (Panc 02): 9.86 µM | IC50 (Renca): 6.03 µM | IC50 (CT-26.WT): 7.48 µM | IC50 (H22): 2.17 µM | IC50 (DU145): 3.59 µM | IC50 (HCT116): 7.01 µM | TV (tumor volume) ([1]; G2, 1 mg/kg i.v. BIW, 0 day (baseline)): 75.96 mm^3 | TGI (tumor growth inhibition) ([1]; G2, 1 mg/kg i.v. BIW, 3 days): −3.49% | TV (tumor volume) ([1]; G2, 1 mg/kg i.v. BIW, 3 days): 288.49 mm^3 | TGI (tumor growth inhibition) ([1]; G2, 1 mg/kg i.v. BIW, 5 days): 6.13% | TV (tumor volume) ([1]; G2, 1 mg/kg i.v. BIW, 5 days): 351.18 mm^3 | TGI (tumor growth inhibition) ([1]; G2, 1 mg/kg i.v. BIW, 7 days): 22.78% | TV (tumor volume) ([1]; G2, 1 mg/kg i.v. BIW, 7 days): 597.48 mm^3 | TGI (tumor growth inhibition) ([1]; G2, 1 mg/kg i.v. BIW, 10 days): 30.23% | TV (tumor volume) ([1]; G2, 1 mg/kg i.v. BIW, 10 days): 821.76 mm^3 | TGI (tumor growth inhibition) ([1]; G2, 1 mg/kg i.v. BIW, 12 days): 36.46% | TV (tumor volume) ([1]; G2, 1 mg/kg i.v. BIW, 12 days): 1081.49 mm^3 | TGI (tumor growth inhibition) ([1]; G2, 1 mg/kg i.v. BIW, 14 days): 39.56% | TV (tumor volume) ([1]; G2, 1 mg/kg i.v. BIW, 14 days): 1627.00 mm^3 | IC50 (786-O): 3.68 µM | IC50 (Hep G2): 8.49 µM | IC50 (MBT-2): 9.91 µM | IC50 (HCC1954): 13.2 µM | IC50 (LL/2(LLC1)): 10.6 µM | IC50 (MFC): 5.96 µM | IC50 (T24): 3.71 µM

Dimyricetin-yl-diselenide
IC50 (PANC-1): 10.3 µM | IC50 (HCC827): 10 µM | IC50 (B16-F10): 13.1 µM | IC50 (A375): 5.2 µM | IC50 (MKN45): 12 µM | IC50 (SK-OV-3): 6.52 µM | IC50 (RM-1): 5.12 µM | IC50 (EMT-6): 3.16 µM | IC50 (Panc 02): 14.3 µM | IC50 (Renca): 5.17 µM | IC50 (CT-26.WT): 5.65 µM | IC50 (H22): 6.64 µM | IC50 (DU145): 8.79 µM | IC50 (HCT116): 5.52 µM | tumor inhibition compared with the positive control (cisplatin) ([1]; 40 mg/kg dose group): better tumor inhibition than the positive control | TV (tumor volume) ([1]; G3, 40 mg/kg s.c. QD, 0 day (baseline)): 75.71 mm^3 | TGI (tumor growth inhibition) ([1]; G3, 40 mg/kg s.c. QD, 3 days): 9.88% | TV (tumor volume) ([1]; G3, 40 mg/kg s.c. QD, 3 days): 257.17 mm^3 | TGI (tumor growth inhibition) ([1]; G3, 40 mg/kg s.c. QD, 5 days): 5.58% | TV (tumor volume) ([1]; G3, 40 mg/kg s.c. QD, 5 days): 355.24 mm^3 | TGI (tumor growth inhibition) ([1]; G3, 40 mg/kg s.c. QD, 7 days): 34.02% | TV (tumor volume) ([1]; G3, 40 mg/kg s.c. QD, 7 days): 532.85 mm^3 | TGI (tumor growth inhibition) ([1]; G3, 40 mg/kg s.c. QD, 10 days): 41.86% | TV (tumor volume) ([1]; G3, 40 mg/kg s.c. QD, 10 days): 711.79 mm^3 | TGI (tumor growth inhibition) ([1]; G3, 40 mg/kg s.c. QD, 12 days): 38.64% | TV (tumor volume) ([1]; G3, 40 mg/kg s.c. QD, 12 days): 1066.44 mm^3 | TGI (tumor growth inhibition) ([1]; G3, 40 mg/kg s.c. QD, 14 days): 60.23% | TV (tumor volume) ([1]; G3, 40 mg/kg s.c. QD, 14 days): 1108.65 mm^3 | TV (tumor volume) ([1]; G4, 20 mg/kg s.c. QD, 0 day (baseline)): 75.31 mm^3 | TGI (tumor growth inhibition) ([1]; G4, 20 mg/kg s.c. QD, 3 days): 29.01% | TV (tumor volume) ([1]; G4, 20 mg/kg s.c. QD, 3 days): 218.25 mm^3 | TGI (tumor growth inhibition) ([1]; G4, 20 mg/kg s.c. QD, 5 days): 19.28% | TV (tumor volume) ([1]; G4, 20 mg/kg s.c. QD, 5 days): 314.27 mm^3 | TGI (tumor growth inhibition) ([1]; G4, 20 mg/kg s.c. QD, 7 days): 32.35% | TV (tumor volume) ([1]; G4, 20 mg/kg s.c. QD, 7 days): 544.04 mm^3 | TGI (tumor growth inhibition) ([1]; G4, 20 mg/kg s.c. QD, 10 days): 39.14% | TV (tumor volume) ([1]; G4, 20 mg/kg s.c. QD, 10 days): 741.18 mm^3 | TGI (tumor growth inhibition) ([1]; G4, 20 mg/kg s.c. QD, 12 days): 29.67% | TV (tumor volume) ([1]; G4, 20 mg/kg s.c. QD, 12 days): 1210.83 mm^3 | TGI (tumor growth inhibition) ([1]; G4, 20 mg/kg s.c. QD, 14 days): 43.53% | TV (tumor volume) ([1]; G4, 20 mg/kg s.c. QD, 14 days): 1542.11 mm^3 | inhibitory effect on the liver cancer tumor model in vivo ([1]; H22 model, 40 and 20 mg/kg s.c.): significant inhibitory effect | IC50 (786-O): 5.14 µM | inhibitory effect on tumor cells in vitro (tumor cells): significant inhibitory effect | IC50 (Hep G2): 12.6 µM | IC50 (MBT-2): 10.8 µM | IC50 (HCC1954): 9.86 µM | IC50 (LL/2(LLC1)): 14.6 µM | IC50 (MFC): 9.55 µM | IC50 (T24): 7.69 µM
